Measured values taken from patent publication US20040023892A1, “Pharmaceutical composition based on a non-steroid anti-inflammatory agent” (priority 2002, published 2004).
Marks after values point to notes of the source that are not given here.

What was measured:
ambulatory patients [1] = test: Clinical investigation of side effects of NAIA combinations with carbohydrates or sorbents
[2] = system: inflammatory swelling of paw of mice after introduction of carragenin; test: Inflammatory swelling of paw of mice after introduction of carragenin; type: in vivo; settings: dose mg/kg; for swelling of paw of mice after introduction of carragenine: Table 4, Control: NAIA alone; for Increase of Mass of Limb / Suppression of Swelling, % to Control: preparation alone, into stomach once a day 5 days, 3.5 hours after carragenin; for swelling of paw of mice after introduction of carragenin: the values are: increase of paw mass
Procedure: Tests were performed on breedless white mice-males with mass 22-24 g. The investigated preparations were introduced to animals through a probe into stomach once a day during five days in form of suspension on 1% starch mucous or aqueous solution.
In one hour after the last introduction of preparations, mice were injected with 0.05 ml of 1% of solution of carragenin in isotonic solution of sodium chloride, under aneurism of right rear paw. After 3.5 hours, on a peak of inflammation, they were killed by dislocation of a neck area of spine. Swollen and healthy paws were compared, and a degree of suppression of swelling was determined in test groups when compared with a control group in accordance with the formula:
Increase of mass of paw in control-increase of mass of paw in test ______ 100 increase of mass of paw in control.
Tests were performed on breedless white mice-males with mass 22-26 g.

breedless mice-male = test: Acute toxicity of ASA (LD50) with carbohydrate or sorbent; type: in vivo; settings: relative to LD50 of ASA alone
Procedure: Tests were conducted on breedless mice-male with mass 22-26 g. Acute toxicity of ASA was evaluated in accordance with the value LD50 (dose from which 50% of animals perish) of composition containing ACA plus carbohydrate or sorbent with ratio 4:1 when compared with LD50 ASA. Preparations were introduced one time intostomach in form of aqueous suspension with doses 350-3000 mg/kg to groups of six mice. Observations were conducted during 14 days. As a substance which has absorbing properties there were used activated carbon, white clay (caolin), aluminum hydroxide, magnium tricilicate, hydroxylapatite, microcrystaalline cellulose (MCC). As carbohydrates there were used monosaccarides-glucose and fructose, disaccaride-saccarose and lactose, and polysaccaride-potato starch. Results of experiments were processed in accordance with the method of Lichfield-Wilkoxon (Belensky, M. L. “Elements of quantitative evaluation of pharmacological effect,” second edition, redone and added, L, Medgiz, 1963, 152 p).
LD50 composition were counted on ASA (tables 7, 8).

ambulatory patients [3] = settings: human, in vivo
[4] = 0.25 g with succinate of ammonium 0.1 g and activated carbon (0.35 g), two times a day 8 weeks

CC(=O)Oc1ccccc1C(=O)O [ASA, acetyl salicylic acid] was tested, and the “better taking of mixture ASA and ammonium succinate” value (ambulatory patients [1]; [4]) was “Four from five”, the dyspeptic phenomena (ambulatory patients [1]; [4]) was “all 5 exhibited dyspeptic phenomena to a lesser degree” and the “swelling of paw of mice after introduction of carragenine” value (“swelling of paw … of carragenine” for short) ([2]; N = 10) was 41.3*. For the same compound, the “Increase of Toxicity In” value (breedless mice-male) was 0.
For CCCCC1C(=O)N(c2ccccc2)N(c2ccccc2)C1=O [BN, butadion], the “swelling of paw … of carragenine” value ([2]; N = 10) was 32.4*.
O=C(O)/C=C/C(=O)O [FUM, fumaric] was tested, and the “Increase of Mass of Limb” value ([2]; n = 10) was 59.3 ± 5.5 mg and the “Suppression of Swelling, % to Control” value ([2]; n = 10) was −1.3 % to Control.
NCC(=O)O [GLy, glycin] was tested, and the “Increase of Mass of Limb” value ([2]; n = 10) was 63.0 ± 5.5 mg and the “Suppression of Swelling, % to Control” value ([2]; n = 10) was “+4.8 % to Control”.
In the case of COc1ccc2c(c1)c(CC(=O)O)c(C)n2C(=O)c1ccc(Cl)cc1 [IM, indometatsin], the “patients needing antyhistamine substances for reduction of allergenic phenomena” value (ambulatory patients [1]; 0.05 g with 0.25 g karsil, group which did not receive sorbent) is reported as “one more patient needed antyhistamine substances”, the “patients forced to stop taking preparation because of strong headaches in epigastric, vomiting” value (ambulatory patients [1]; 0.05 g with 0.25 g karsil, group which did not receive sorbent, after the third week) is reported as 1 patient and the “side effects of indometnacyne, in particular dispeptic phenomena, dizziness, headaches” value (ambulatory patients [1]; 0.05 g with 0.25 g karsil, together with microcrystalline cellulose 1:2, 5 weeks, versus without sorbent) is reported as “to a lesser degree”. For the same compound, the “swelling of paw … of carragenine” value ([2]; N = 10) was 19.0*.
For O=c1c(O)c(-c2ccc(O)c(O)c2)oc2cc(O)cc(O)c12 [KV, kvertsetin], the “Increase of Mass of Limb” value ([2]; n = 10) was 58.7 ± 3.6 mg and the “Suppression of Swelling, % to Control” value ([2]; n = 10) was −2.3 % to Control.
In the case of O=C(O)CCCCC1CCSS1 (stereo not drawn) [Lipoic acid LA, lipoic acid], the “Increase of Mass of Limb” value ([2]; n = 10) is reported as 62.3 mg and the “Suppression of Swelling, % to Control” value ([2]; n = 10) is reported as “+3.7 % to Control”.
For O=C(O)c1cccnc1Nc1cccc(C(F)(F)F)c1 [NA, niflumic acid], the “swelling of paw … of carragenine” value ([2]; N = 10) was 31.1*.
In the case of COc1ccc2cc([C@H](C)C(=O)O)ccc2c1 [NP, naproxen], the “swelling of paw … of carragenine” value ([2]; N = 10) is reported as 28.9*.
For CN1C(C(=O)Nc2ccccn2)=C(O)c2ccccc2S1(=O)=O [PK, piroxikam], the swelling of paw of mice after introduction of carragenin ([2]; Table 2, column Control: NAIA alone, N = 10) was 28.8 mg, the swelling of paw of mice after introduction of carragenin ([2]; Table 3, column Control: NAIA alone, n = 10) was 28.8 mg and the “swelling of paw … of carragenine” value ([2]; N = 10) was 28.8*. For the same compound, the swelling of paw of mice after introduction of carragenin ([2]; Table 5, column Control: NAIA alone, N = 10) was 28.8 mg, the “Increase of Mass of Limb” value ([2]; n = 10) was 28.8 ± 4.9 mg and the “Suppression of Swelling, % to Control” value ([2]; n = 10) was −52.0 % to Control.
In the case of N.N.O=C(O)CCC(=O)O [S-NH4, succinate of ammonium], the “Increase of Mass of Limb” value ([2]; n = 10) is reported as 63.5 ± 6.1 mg and the “Suppression of Swelling, % to Control” value ([2]; n = 10) is reported as “+5.7 % to Control”.
For N[C@@H](CS)C(=O)O [TIS, tsistein], the “Increase of Mass of Limb” value ([2]; n = 10) was 61.5 ± 6.4 mg and the “Suppression of Swelling, % to Control” value ([2]; n = 10) was “+2.3 % to Control”.
With O=C(O)Cc1ccccc1Nc1c(Cl)cccc1Cl [VL, voltaren] the “swelling of paw … of carragenine” value ([2]; N = 10) was 24.3*.
O=C([O-])Cc1ccccc1Nc1c(Cl)cccc1Cl.[Na+] [ortofen] was tested, and the “dispeptic phenomenon, headaches, dizziness” value (ambulatory patients [3]) was “less exhibited” and the taking of medication (ambulatory patients [3]) was “taking medication better”.
For Vitamin B6 [Vit B6], the “Increase of Mass of Limb” value ([2]; n = 10) was 60.5 mg and the “Suppression of Swelling, % to Control” value ([2]; n = 10) was “+0.7 % to Control”.
For Vitamin E [Vit E], the “Increase of Mass of Limb” value ([2]; n = 10) was 58.7 mg and the “Suppression of Swelling, % to Control” value ([2]; n = 10) was −2.3 % to Control.
